Results reported in US6617491B2, “Use of drosophila melanogaster as a model for screening psychostimulant plant materials” (Council of Scientific & Industrial Research, priority 2001, dated 2003).

Key:
[1] = tested on: Sh^5eag^1 mutant flies; test: Spontaneous locomotor activity in flies, pair-wise visual comparison of vials on a scale of '0', '+' or '−'; assay type: in vivo, Drosophila melanogaster; conditions: baseline NF flies; 73 comparisons; 5th day; 20 flies per vial
Method: To further understand the activity profile of the plant material, flies were treated with either NF or NF containing either ethanol alone (NF+ET) or ethanol and extract both (NF+ET+EX). The ethanol concentration used was 20% (v/v). Other details were as described earlier. On 5th day, spontaneous locomotor activity in flies was pair-wise compared either between NF and NF+ET or between NF+ET and NF+ET+EX. Two vials representing the two treatments were kept side by side in an inverted position. There were 20 flies in each vial. The flies' activity in a group was visually estimated on a scale of ‘0’, ‘+’ or ‘−’, as described below. To compare between NF and NF+ET, the sum total of activity seen in the vial containing NF flies was considered ‘0’. The activity in the NF+ET vial was then given a ‘0’, ‘+’ or ‘−’, depending on whether it is equal, more or less than the activity observed in NF vial respectively. The process was repeated 73 times spanning an entire day. In this test, ethanol treated flies received 23 ‘0’s, no ‘+’ and 50 ‘−’s. […] NF+
ET and NF+ET+EX flies were similarly compared, with the activity in the former serving as baseline, i.e., ‘0’. In this test, NF+ET+EX received no ‘0’, 73 ‘+’5 and no ‘−’. […] First, ethanol decreases spontaneous locomotor activity in flies. Second, Acorus extract increases spontaneous locomotor activity in flies treated with ethanol, a CNS depressant drug.
Having observed a stimulant activity of Acorus extract in flies under the influence of alcohol, the question whether the extract also stimulates normal flies, i.e., individuals not under the drug's influence, was asked. To answer this, spontaneous locomotor activity in NF and NF+EX flies were compared, as described above. NF flies' activity served as the baseline. In the test conducted the extract treated flies received 18 ‘0’5 […] and 2 ‘−’s.

[2] = tested on: Sh^5eag^1 mutant flies; test: Time of recovery from diethyl ether anesthesia in individual fly pairs; assay type: in vivo, Drosophila melanogaster; conditions: NF+PS; PS 1 mg/ml in fly food; 10 fly pairs
Method: Standard Drosophila manipulation methods were followed. Cultures were grown on a medium containing maize powder, sugar, yeast and Nipagin. Flies were maintained and further manipulated at room temperature. Experimental conditions were kept identical throughout. The double mutant Sh^5eag^1 was generated using standard methods of Drosophila genetics. Male flies of similar age were used in the experiment. In routine screening, flies were anesthetized in various groups and then allowed to recover in an identical manner. For further testing, individual fly pairs were used as described below. Following different treatments, flies were first anesthetized with diethyl ether and healthy looking individuals shifted to a number of empty vials in such a way that each vial received two flies, one from each treatment. Before shifting, flies from one of the two treatments were marked on their wings for the purpose of identification. Flies were allowed to recover fully. After an hour, each fly pair was subjected to the following test. […]
To understand the above activity, and others, if any, of the Acorus extracts in Drosophila in a quantitative manner, following experiments were carried out using acetone extract as the representative substance. […] First, time of recovery from ether anesthesia was measured in individual flies. […] Following this, recovery time was determined as described earlier. […]

[3] = tested on: Sh^5eag^1 mutant flies; conditions: from Sharma and Kumar, Ser. No. 09/789,525; cited from earlier work

SMILES	spontaneous locomotor activity: number of '0's (times equally active) [1]	spontaneous locomotor activity: number of '+'s (times more active) [1]	spontaneous locomotor activity: number of '−'s (times less active) [1]	recovery time from ether anesthesia [2]	effect on recovery from ether anesthesia in flies [3]
CCO [ethanol]	23	no	50	–	–
CCC1(c2ccccc2)C(=O)NC(=O)NC1=O [phenobarbital sodium]	–	–	–	11.3 ± 2.38 min	causes a delay in recovery
